Assay results taken from article PMC9841532, “Exploring the Effect of Halogenation in a Series of Potent and Selective A2B Adenosine Receptor Antagonists” (Journal of Medicinal Chemistry, 2022).

target: T1, hA2BAR (Homo sapiens, UniProt P29275); assay: Radioligand binding competition, [3H]DPCPX, membranes from HEK-293-A2B cells; parameters: Exp. dG: unit not given here; details: 1 μM, [3H]DPCPX, human HEK-293 cells, n = 2
T1 construct: host or cells: HEK-293 (HEK-293-A2B) cell membranes
T1 sequence (P29275 1-332): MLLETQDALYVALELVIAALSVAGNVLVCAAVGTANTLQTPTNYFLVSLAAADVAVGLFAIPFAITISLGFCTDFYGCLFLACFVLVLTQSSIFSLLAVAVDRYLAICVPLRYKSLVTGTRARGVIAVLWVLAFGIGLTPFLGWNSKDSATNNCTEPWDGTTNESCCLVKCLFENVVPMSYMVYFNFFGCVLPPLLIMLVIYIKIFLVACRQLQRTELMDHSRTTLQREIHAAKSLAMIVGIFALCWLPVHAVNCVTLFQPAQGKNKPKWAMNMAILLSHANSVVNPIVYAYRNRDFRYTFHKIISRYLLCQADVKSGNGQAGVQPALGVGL
Method: (§1) All ligands reported in Tables 1–5 were obtained and tested as racemic mixtures. The whole set was evaluated in silico with a combination of a Rdkit[37] PAINS filter and Instant JChem from Chemaxon (https://www.chemaxon.com), to rule out the possibility that these ligands can be promiscuous pan-assay interference compounds (PAINS) and to assess their bioavailability, respectively. […] The stereoisomers of selected compounds were obtained by chiral resolution and tested at the four human AR subtypes in their enantiopure forms (Table 6).
(§2) A brief description is given below. […] Non-specific binding was determined in the presence of 10 μM R-PIA. The reaction mixture was incubated at 25 °C for 60 min. […] The reaction mixture was incubated at 25 °C for 30 min. […] The reaction mixture was incubated at 25 °C for 30 min. […] Non-specific binding was determined in the presence of 100 μM R-PIA. […] After the incubation time, membranes were washed and filtered and radioactivity was detected in a MicroBeta TriLux reader (PerkinElmer).

Row | % at 1 μM hA2B (percentage displacement of specific binding) | Structure (SMILES)
1 | 43% | CCOC(=O)C1=C(C)Nc2nc3ccc(Br)cc3n2C1c1ccsc1 (centres unmarked) [15w]
2 | 10% | CC1=C(C(=O)OC(C)C)C(c2ccsc2)n2c(nc3ccc(Br)cc32)N1 (centres unmarked) [15x]

same assay, conditions: displacement of specific [3H]DPCPX binding in human HEK-293 cells, n = 3; read-out: Ki hA2B

Row | Structure (SMILES) | Ki
3 | CCOC(=O)C1=C(C)Nc2nc3ccc(F)cc3n2C1c1ccco1 (centres unmarked) [15a] | 67.5 ± 3.1 nM
4 | CC1=C(C(=O)OC(C)C)C(c2ccco2)n2c(nc3ccc(F)cc32)N1 (centres unmarked) [15b] | 12.2 ± 1.2 nM
5 | CCOC(=O)C1=C(C)Nc2nc3ccc(F)cc3n2C1c1ccsc1 (centres unmarked) [15g] | 1030 ± 95 nM
6 | CC1=C(C(=O)OC(C)C)C(c2ccsc2)n2c(nc3ccc(F)cc32)N1 (centres unmarked) [15h] | 764 ± 11 nM
7 | CCOC(=O)C1=C(C)Nc2nc3ccc(Cl)cc3n2C1c1ccoc1 (centres unmarked) [15k] | 47.3 ± 1.9 nM
8 | CCOC(=O)C1=C(C)Nc2nc3cc(F)ccc3n2C1c1ccoc1 (centres unmarked) [16c] | 13.7 ± 0.9 nM

The remaining lines, values ahead:

Row | Ki | Structure (SMILES)
9 | 25 ± 1.5 nM | CCOC(=O)C1=C(C)Nc2nc3ccc(F)cc3n2C1c1ccoc1 (centres unmarked) [15c]
10 | 136 ± 7 nM | CC1=C(C(=O)OC(C)C)C(c2ccoc2)n2c(nc3ccc(F)cc32)N1 (centres unmarked) [15d]
11 | 273 ± 4 nM | CC1=C(C(=O)OC(C)C)C(c2ccco2)n2c(nc3ccc(Br)cc32)N1 (centres unmarked) [15r]
12 | 318 ± 6 nM | CCOC(=O)C1=C(C)Nc2nc3ccc(Br)cc3n2C1c1ccoc1 (centres unmarked) [15s]
13 | 6.6 ± 1 nM | CCOC(=O)C1=C(C)Nc2nc3cc(F)ccc3n2C1c1ccco1 (centres unmarked) [16a]

same assay, conditions: experimental binding free energy, Supplementary Table S3; unit not given (errors in kcal/mol)

Row | Structure (SMILES) | Exp. dG
14 | CCOC(=O)C1=C(C)Nc2nc3ccc(F)cc3n2C1c1ccco1 (centres unmarked) [15a] | -9.777
15 | CC1=C(C(=O)OC(C)C)C(c2ccco2)n2c(nc3ccc(F)cc32)N1 (centres unmarked) [15b] | -10.79
16 | CCOC(=O)C1=C(C)Nc2nc3ccc(F)cc3n2C1c1ccsc1 (centres unmarked) [15g] | -8.162
17 | CC1=C(C(=O)OC(C)C)C(c2ccsc2)n2c(nc3ccc(F)cc32)N1 (centres unmarked) [15h] | -8.34
18 | CCOC(=O)C1=C(C)Nc2nc3ccc(Cl)cc3n2C1c1ccoc1 (centres unmarked) [15k] | -9.987
19 | CCOC(=O)C1=C(C)Nc2nc3cc(F)ccc3n2C1c1ccoc1 (centres unmarked) [16c] | -10.72

Now from value to molecule:

Row | Exp. dG | Structure (SMILES)
20 | -9.361 | CCOC(=O)C1=C(C)Nc2nc3ccc(F)cc3n2C1c1ccoc1 (centres unmarked) [15c]
21 | -10.36 | CC1=C(C(=O)OC(C)C)C(c2ccoc2)n2c(nc3ccc(F)cc32)N1 (centres unmarked) [15d]
22 | -11.15 | CCOC(=O)C1=C(C)Nc2nc3cc(F)ccc3n2C1c1ccco1 (centres unmarked) [16a]

same assay, conditions: read-out: Ki hA2B

Row | Ki | Structure (SMILES)
23 | ~45 nM | CCOC(=O)C1=C(C)Nc2nc3ccc(Cl)cc3n2C1c1ccoc1 (centres unmarked) [15k]
24 | ~45 nM | CC1=C(C(=O)OC(C)C)C(c2ccco2)n2c(nc3ccc(Br)cc32)N1 (centres unmarked) [15r]
25 | ~45 nM | CCOC(=O)C1=C(C)Nc2nc3ccc(Br)cc3n2C1c1ccoc1 (centres unmarked) [15s]
26 | < 10 nM | CCOC(=O)C1=C(C)Nc2nc3cc(F)ccc3n2C1c1ccco1 (centres unmarked) [16a]

target: T2, hA1AR (Homo sapiens, UniProt P30542); assay: Radioligand binding competition, [3H]DPCPX, membranes from CHO-A1 cells; details: 1 μM, [3H]DPCPX, human CHO cells, n = 2
T2 sequence (P30542 1-326): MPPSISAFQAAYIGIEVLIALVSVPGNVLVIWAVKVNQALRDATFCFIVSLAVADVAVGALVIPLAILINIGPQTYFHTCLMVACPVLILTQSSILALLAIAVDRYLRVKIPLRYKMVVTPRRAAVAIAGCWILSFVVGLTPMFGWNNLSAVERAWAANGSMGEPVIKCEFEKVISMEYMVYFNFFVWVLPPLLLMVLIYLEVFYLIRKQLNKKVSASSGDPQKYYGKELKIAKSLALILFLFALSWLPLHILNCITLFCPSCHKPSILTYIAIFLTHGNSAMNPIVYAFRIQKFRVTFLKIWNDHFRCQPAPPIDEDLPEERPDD
Method: as §1, §2

Row | Structure (SMILES) | % at 1 μM hA1 (percentage displacement of specific binding)
27 | CCOC(=O)C1=C(C)Nc2nc3ccc(F)cc3n2C1c1ccco1 (centres unmarked) [15a] | 16%
28 | CC1=C(C(=O)OC(C)C)C(c2ccco2)n2c(nc3ccc(F)cc32)N1 (centres unmarked) [15b] | 32%
29 | CCOC(=O)C1=C(C)Nc2nc3ccc(F)cc3n2C1c1ccsc1 (centres unmarked) [15g] | 7%
30 | CC1=C(C(=O)OC(C)C)C(c2ccsc2)n2c(nc3ccc(F)cc32)N1 (centres unmarked) [15h] | 1%
31 | CCOC(=O)C1=C(C)Nc2nc3ccc(Cl)cc3n2C1c1ccoc1 (centres unmarked) [15k] | 22%
32 | CCOC(=O)C1=C(C)Nc2nc3ccc(Br)cc3n2C1c1ccsc1 (centres unmarked) [15w] | 4%
33 | CC1=C(C(=O)OC(C)C)C(c2ccsc2)n2c(nc3ccc(Br)cc32)N1 (centres unmarked) [15x] | 1%
34 | CCOC(=O)C1=C(C)Nc2nc3cc(F)ccc3n2C1c1ccoc1 (centres unmarked) [16c] | 29%

The remaining lines, values ahead:

Row | % at 1 μM hA1 (percentage displacement of specific binding) | Structure (SMILES)
35 | 26% | CCOC(=O)C1=C(C)Nc2nc3ccc(F)cc3n2C1c1ccoc1 (centres unmarked) [15c]
36 | 25% | CC1=C(C(=O)OC(C)C)C(c2ccoc2)n2c(nc3ccc(F)cc32)N1 (centres unmarked) [15d]
37 | 46% | CC1=C(C(=O)OC(C)C)C(c2ccco2)n2c(nc3ccc(Br)cc32)N1 (centres unmarked) [15r]
38 | 10% | CCOC(=O)C1=C(C)Nc2nc3ccc(Br)cc3n2C1c1ccoc1 (centres unmarked) [15s]
39 | 10% | CCOC(=O)C1=C(C)Nc2nc3cc(F)ccc3n2C1c1ccco1 (centres unmarked) [16a]

target: T3, hA2AAR (Homo sapiens, UniProt P29274); assay: Radioligand binding competition, [3H]ZM241385, membranes from HeLa-A2A cells; details: 1 μM, [3H]ZM241385, human HeLa cells, n = 2
T3 construct: expressed in transfected cells; host or cells: HeLa (HeLa-A2A) cell membranes
T3 sequence (P29274 whole entry): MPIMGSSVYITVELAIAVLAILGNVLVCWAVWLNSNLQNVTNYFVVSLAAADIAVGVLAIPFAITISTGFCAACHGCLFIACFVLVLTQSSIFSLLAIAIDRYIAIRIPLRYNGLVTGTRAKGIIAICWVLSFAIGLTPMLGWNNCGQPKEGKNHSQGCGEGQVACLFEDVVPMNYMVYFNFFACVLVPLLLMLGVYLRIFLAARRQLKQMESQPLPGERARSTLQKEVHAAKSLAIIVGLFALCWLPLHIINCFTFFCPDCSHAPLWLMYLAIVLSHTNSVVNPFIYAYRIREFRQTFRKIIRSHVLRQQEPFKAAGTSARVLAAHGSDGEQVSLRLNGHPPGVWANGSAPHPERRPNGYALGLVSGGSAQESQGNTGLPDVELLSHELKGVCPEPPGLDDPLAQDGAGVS
Method: as §1, §2

Row | Structure (SMILES) | % at 1 μM hA2A (percentage displacement of specific binding)
40 | CCOC(=O)C1=C(C)Nc2nc3ccc(F)cc3n2C1c1ccco1 (centres unmarked) [15a] | 2%
41 | CC1=C(C(=O)OC(C)C)C(c2ccco2)n2c(nc3ccc(F)cc32)N1 (centres unmarked) [15b] | 3%
42 | CCOC(=O)C1=C(C)Nc2nc3ccc(F)cc3n2C1c1ccsc1 (centres unmarked) [15g] | 1%
43 | CC1=C(C(=O)OC(C)C)C(c2ccsc2)n2c(nc3ccc(F)cc32)N1 (centres unmarked) [15h] | 1%
44 | CCOC(=O)C1=C(C)Nc2nc3ccc(Cl)cc3n2C1c1ccoc1 (centres unmarked) [15k] | 30%
45 | CCOC(=O)C1=C(C)Nc2nc3ccc(Br)cc3n2C1c1ccsc1 (centres unmarked) [15w] | 3%
46 | CC1=C(C(=O)OC(C)C)C(c2ccsc2)n2c(nc3ccc(Br)cc32)N1 (centres unmarked) [15x] | 1%
47 | CCOC(=O)C1=C(C)Nc2nc3cc(F)ccc3n2C1c1ccoc1 (centres unmarked) [16c] | 21%

Now from value to molecule:

Row | % at 1 μM hA2A (percentage displacement of specific binding) | Structure (SMILES)
48 | 21% | CCOC(=O)C1=C(C)Nc2nc3ccc(F)cc3n2C1c1ccoc1 (centres unmarked) [15c]
49 | 11% | CC1=C(C(=O)OC(C)C)C(c2ccoc2)n2c(nc3ccc(F)cc32)N1 (centres unmarked) [15d]
50 | 1% | CC1=C(C(=O)OC(C)C)C(c2ccco2)n2c(nc3ccc(Br)cc32)N1 (centres unmarked) [15r]
51 | 1% | CCOC(=O)C1=C(C)Nc2nc3ccc(Br)cc3n2C1c1ccoc1 (centres unmarked) [15s]
52 | 29% | CCOC(=O)C1=C(C)Nc2nc3cc(F)ccc3n2C1c1ccco1 (centres unmarked) [16a]

target: T4, hA3AR (Homo sapiens, UniProt P0DMS8); assay: Radioligand binding competition, [3H]NECA, membranes from HeLa-A3 cells; details: 1 μM, [3H]NECA, human HeLa cells, n = 2
T4 construct: expressed in transfected cells; host or cells: HeLa (HeLa-A3) cell membranes
T4 sequence (P0DMS8 1-318): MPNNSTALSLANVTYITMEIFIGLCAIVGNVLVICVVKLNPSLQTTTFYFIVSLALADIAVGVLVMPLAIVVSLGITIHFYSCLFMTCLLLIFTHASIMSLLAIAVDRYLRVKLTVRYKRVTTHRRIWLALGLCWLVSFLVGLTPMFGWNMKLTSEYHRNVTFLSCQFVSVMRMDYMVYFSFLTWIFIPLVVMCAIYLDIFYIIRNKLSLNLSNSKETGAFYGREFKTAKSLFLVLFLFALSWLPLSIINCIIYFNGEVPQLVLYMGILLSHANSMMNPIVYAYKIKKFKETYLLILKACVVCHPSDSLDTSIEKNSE
Method: as §1, §2

Row | Structure (SMILES) | % at 1 μM hA3 (percentage displacement of specific binding)
53 | CCOC(=O)C1=C(C)Nc2nc3ccc(F)cc3n2C1c1ccco1 (centres unmarked) [15a] | 10%
54 | CC1=C(C(=O)OC(C)C)C(c2ccco2)n2c(nc3ccc(F)cc32)N1 (centres unmarked) [15b] | 5%
55 | CCOC(=O)C1=C(C)Nc2nc3ccc(F)cc3n2C1c1ccsc1 (centres unmarked) [15g] | 3%
56 | CC1=C(C(=O)OC(C)C)C(c2ccsc2)n2c(nc3ccc(F)cc32)N1 (centres unmarked) [15h] | 1%
57 | CCOC(=O)C1=C(C)Nc2nc3ccc(Cl)cc3n2C1c1ccoc1 (centres unmarked) [15k] | 3%
58 | CCOC(=O)C1=C(C)Nc2nc3ccc(Br)cc3n2C1c1ccsc1 (centres unmarked) [15w] | 3%
59 | CC1=C(C(=O)OC(C)C)C(c2ccsc2)n2c(nc3ccc(Br)cc32)N1 (centres unmarked) [15x] | 1%
60 | CCOC(=O)C1=C(C)Nc2nc3cc(F)ccc3n2C1c1ccoc1 (centres unmarked) [16c] | 2%

More lines, now with the values ahead:

Row | % at 1 μM hA3 (percentage displacement of specific binding) | Structure (SMILES)
61 | 5% | CCOC(=O)C1=C(C)Nc2nc3ccc(F)cc3n2C1c1ccoc1 (centres unmarked) [15c]
62 | 6% | CC1=C(C(=O)OC(C)C)C(c2ccoc2)n2c(nc3ccc(F)cc32)N1 (centres unmarked) [15d]
63 | 6% | CC1=C(C(=O)OC(C)C)C(c2ccco2)n2c(nc3ccc(Br)cc32)N1 (centres unmarked) [15r]
64 | 19% | CCOC(=O)C1=C(C)Nc2nc3ccc(Br)cc3n2C1c1ccoc1 (centres unmarked) [15s]
65 | 2% | CCOC(=O)C1=C(C)Nc2nc3cc(F)ccc3n2C1c1ccco1 (centres unmarked) [16a]
